From ChEMBL document CHEMBL1124133, “Synthesis and hypolipidemic activity of 2-substituted isobutyric acid derivatives” (1988)

Legend:
Type in all cases: functional
Details in all cases: route oral
Rattus norvegicus [1] = assay: Hypolipidemic effects of compound on rat plasma high density lipoprotein cholesterol (HDLC) level after peroral administration at 100 mg/kg dose
Rattus norvegicus [2] = assay: Hypolipidemic effect on rat plasma Total cholesterol (TC) level by peroral administration at 100 mg/kg dose
Rattus norvegicus [3] = assay: Hypolipidemic effects in rat fed a high cholesterol diet (HC) by peroral administration at 100 mg/kg dose(increase in liver weight with respect to body weight mg/g)
Rattus norvegicus [4] = assay: Hypolipidemic effects of compound on rat plasma Triglyceride (TG) level after peroral administration at 100 mg/kg dose
Rattus norvegicus [5] = assay: Hypolipidemic effects in rat fed a high cholesterol diet (HC) by peroral administration at 100 mg/kg dose.(increase in liver weight with respect to body weight mg/g)
Rattus norvegicus [6] = assay: Hypolipidemic effects in rat fed a normal diet by peroral administration at 100 mg/kg dose(increase in liver weight with respect to body weight mg/g)
Rattus norvegicus [7] = assay: Hypolipidemic effects of compound on rat plasma high density lipoprotein cholesterol (HDLC) level after peroral administration at 100 mg/kg dose (Experiment 1)
Rattus norvegicus [8] = assay: Hypolipidemic effect on rat plasma Total cholesterol (TC) level by peroral administration at 100 mg/kg dose (Experiment 1)
Rattus norvegicus [9] = assay: Hypolipidemic effect on rat plasma Total cholesterol (TC) level by peroral administration at 100 mg/kg dose (Experiment 2)
Rattus norvegicus [10] = assay: Hypolipidemic effects in rat fed a high cholesterol diet (HC) by peroral administration at 100 mg/kg dose.(increase in liver weight with respect to body weight mg/g); (Experiment 1)
Rattus norvegicus [11] = assay: Hypolipidemic effects in rat fed a high cholesterol diet (HC) by peroral administration at 100 mg/kg dose.(increase in liver weight with respect to body weight mg/g); (Experiment 2)
Rattus norvegicus [12] = assay: Hypolipidemic effects in rat fed a normal diet by peroral administration at 100 mg/kg dose.(increase in liver weight with respect to body weight mg/g); (Experiment 1)
Rattus norvegicus [13] = assay: Hypolipidemic effects in rat fed a normal diet by peroral administration at 100 mg/kg dose.(increase in liver weight with respect to body weight mg/g); (Experiment 2)
Rattus norvegicus [14] = assay: Hypolipidemic effects of compound on rat plasma Triglyceride (TG) level after peroral administration at 100 mg/kg dose (Experiment 1)
Rattus norvegicus [15] = assay: Hypolipidemic effects of compound on rat plasma Triglyceride (TG) level after peroral administration at 100 mg/kg dose (Experiment 2)
Rattus norvegicus [16] = assay: Hypolipidemic effects of compound on rat plasma high density lipoprotein cholesterol (HDLC) level after peroral administration at 100 mg/kg dose (Experiment 2)
Rattus norvegicus [17] = assay: Hypolipidemic effects in rat plasma high density lipoprotein cholesterol (HDLC) by peroral administration at 100 mg/kg dose
Rattus norvegicus [18] = assay: Hypolipidemic effect in rat plasma Total cholesterol (TC) by peroral administration at 100 mg/kg dose
Rattus norvegicus [19] = assay: Hypolipidemic effects in rat fed a high cholesterol diet (HC) by peroral administration at 100 mg/kg dose.
Rattus norvegicus [20] = assay: Hypolipidemic effects in rat plasma Triglyceride (TG) by peroral administration at 100 mg/kg dose
Rattus norvegicus [21] = assay: Hypolipidemic effects in rat fed a high cholesterol diet (HC) by peroral administration at 100 mg/kg dose. (increase in liver weight with respect to body weight mg/g)
Rattus norvegicus [22] = assay: Hypolipidemic effects in rat fed a normal diet by peroral administration at 100 mg/kg dose.
Rattus norvegicus [23] = assay: Hypolipidemic effects in rat fed a normal diet by peroral administration at 100 mg/kg dose.(increase in liver weight with respect to body weight mg/g)
Rattus norvegicus [24] = assay: Hypolipidemic effects of compound on rat plasma Triglyceride (TG) level after by peroral administration at 100 mg/kg dose
Rattus norvegicus [25] = assay: Hypolipidemic effects in rat fed a high cholesterol diet (HC) by peroral administration at 100 mg/kg dose (increase in liver weight with respect to body weight mg/g)

Compound | HDL-C (Rattus norvegicus [1]) | TC (Rattus norvegicus [2]) | TG (Rattus norvegicus [4]) | Liver weight (Rattus norvegicus [5]) | other results
CC(C)(CCCOc1ccc(CCNC(=O)c2ccccc2)cc1)C(=O)O | 42.1 mg/dL | 204.1 mg/dL | 49.4 mg/dL | – | Liver weight (Rattus norvegicus [3]): 57 mg (g of body weight)-1
Cc1ccc(C)c(CCCCc2ccc(OCCCCC(C)(C)C(=O)O)cc2)c1 | 56 mg/dL | 125.9 mg/dL | 34.4 mg/dL | 59.9 mg (g of body weight)-1 | Liver weight (Rattus norvegicus [6]): 40 mg (g of body weight)-1
CC(C)(CCCCOc1ccc(CCCCc2ccccc2)cc1)C(=O)O | – | – | – | – | HDL-C (Rattus norvegicus [7]): 49.4 mg/dL; TC (Rattus norvegicus [8]): 159.5 mg/dL; TC (Rattus norvegicus [9]): 132.9 mg/dL; Liver weight (Rattus norvegicus [10]): 55.8 mg (g of body weight)-1; Liver weight (Rattus norvegicus [11]): 59.1 mg (g of body weight)-1; Liver weight (Rattus norvegicus [12]): 41.7 mg (g of body weight)-1; Liver weight (Rattus norvegicus [13]): 40.7 mg (g of body weight)-1; TG (Rattus norvegicus [14]): 49 mg/dL; TG (Rattus norvegicus [15]): 33.8 mg/dL; HDL-C (Rattus norvegicus [16]): 50.9 mg/dL
Cc1cnc(C(=O)OCC(C)(C)CCCCOc2ccc(CCCCc3ccccc3)cc2)c[n+]1[O-] | – | – | – | – | HDL-C (Rattus norvegicus [17]): 45.3 mg/dL; TC (Rattus norvegicus [18]): <146.6 mg/dL; Liver weight (Rattus norvegicus [19]): 57.8 mg (g of body weight)-1; TG (Rattus norvegicus [20]): 45.8 mg/dL
CC(C)(CCCOc1ccc(Cc2ccccc2)cc1)C(=O)O | 29.9 mg/dL | 284.4 mg/dL | 84.7 mg/dL | – | Liver weight (Rattus norvegicus [21]): 53.2 mg (g of body weight)-1
CC(C)(CCCCCCCCCOc1ccc(CCCCc2ccccc2)cc1)C(=O)O | – | – | – | – | HDL-C (Rattus norvegicus [17]): <55 mg/dL; TC (Rattus norvegicus [18]): <173.6 mg/dL; Liver weight (Rattus norvegicus [19]): 57.5 mg (g of body weight)-1; Liver weight (Rattus norvegicus [22]): <38.2 mg (g of body weight)-1; TG (Rattus norvegicus [20]): 57.3 mg/dL
CC(C)(CCCOc1ccc(CCCc2ccccc2)cc1)C(=O)O | 40.6 mg/dL | 217.5 mg/dL | – | 54 mg (g of body weight)-1 | Liver weight (Rattus norvegicus [23]): 39.1 mg (g of body weight)-1; TG (Rattus norvegicus [24]): 79.5 mg/dL
CC(C)(CCCOc1ccc(CCCCCc2ccccc2)cc1)C(=O)O | 38.1 mg/dL | 261.9 mg/dL | – | 54.1 mg (g of body weight)-1 | Liver weight (Rattus norvegicus [23]): 40 mg (g of body weight)-1; TG (Rattus norvegicus [24]): 71.9 mg/dL
Cc1ccc(CCCCc2ccc(OCCCCC(C)(C)C(=O)O)cc2)c(C)c1 | 73 mg/dL | 173.9 mg/dL | 37 mg/dL | – | Liver weight (Rattus norvegicus [3]): 62.3 mg (g of body weight)-1; Liver weight (Rattus norvegicus [6]): 41.8 mg (g of body weight)-1
CC(C)(CCCCOc1ccc(CCCCc2ccccc2)cc1)C(=O)OCc1cccnc1 | 59.6 mg/dL | 154.3 mg/dL | 43.9 mg/dL | 58.2 mg (g of body weight)-1 | Liver weight (Rattus norvegicus [6]): 38 mg (g of body weight)-1
CC(C)(CCCOc1ccc(CCCCCCc2ccccc2)cc1)C(=O)O | 38.4 mg/dL | 256.1 mg/dL | – | – | Liver weight (Rattus norvegicus [3]): 52.1 mg (g of body weight)-1; TG (Rattus norvegicus [24]): 86.2 mg/dL
CC(C)(CCCOc1ccc(C(=O)c2ccccc2)cc1)C(=O)O | 57.6 mg/dL | 260.8 mg/dL | 53.6 mg/dL | – | Liver weight (Rattus norvegicus [3]): 81.8 mg (g of body weight)-1
CC(C)(CCCOc1ccc(CCCCc2ccccc2)cc1)C(=O)O | 35.2 mg/dL | 258.3 mg/dL | 76.9 mg/dL | 54.5 mg (g of body weight)-1 | –
CC(C)(Oc1ccc(CCCCc2ccccc2)cc1)C(=O)O | 50.7 mg/dL | 194.6 mg/dL | 41.3 mg/dL | – | Liver weight (Rattus norvegicus [3]): 67.1 mg (g of body weight)-1; Liver weight (Rattus norvegicus [6]): 54.6 mg (g of body weight)-1
CC(C)(CCCCOc1ccc(CCCCc2ccccc2)cc1)COC(=O)c1cccnc1 | 49.9 mg/dL | 152 mg/dL | 46.7 mg/dL | 57.8 mg (g of body weight)-1 | Liver weight (Rattus norvegicus [6]): 39.7 mg (g of body weight)-1
Cc1cnc(COC(=O)C(C)(C)CCCCOc2ccc(CCCCc3ccccc3)cc2)cn1 | 51.7 mg/dL | 181.5 mg/dL | – | 59.6 mg (g of body weight)-1 | Liver weight (Rattus norvegicus [6]): 38.2 mg (g of body weight)-1; TG (Rattus norvegicus [24]): 36.9 mg/dL
CC(C)(CCCOc1ccc(-c2ccccc2)cc1)C(=O)O | 39.9 mg/dL | 222.7 mg/dL | 54.3 mg/dL | – | Liver weight (Rattus norvegicus [21]): 54.7 mg (g of body weight)-1
CC(C)(CCCCCCCOc1ccc(CCCCc2ccccc2)cc1)C(=O)O | – | – | – | – | HDL-C (Rattus norvegicus [17]): <65.2 mg/dL; TC (Rattus norvegicus [18]): <145.7 mg/dL; Liver weight (Rattus norvegicus [19]): 57.6 mg (g of body weight)-1; Liver weight (Rattus norvegicus [22]): <40.1 mg (g of body weight)-1; TG (Rattus norvegicus [20]): 43 mg/dL
CC(C)(CCCOc1ccc(CCc2ccccc2)cc1)C(=O)O | 32 mg/dL | 282.8 mg/dL | 92.7 mg/dL | 53.5 mg (g of body weight)-1 | –
CC(C)(CCCCCOc1ccc(CCCCc2ccccc2)cc1)C(=O)O | 52.4 mg/dL | 190.6 mg/dL | 60.4 mg/dL | 58.3 mg (g of body weight)-1 | Liver weight (Rattus norvegicus [23]): 36.7 mg (g of body weight)-1
CC(C)(CCCCCCCCCCOc1ccc(CCCCc2ccccc2)cc1)C(=O)O | – | – | – | – | HDL-C (Rattus norvegicus [17]): 48.6 mg/dL; TC (Rattus norvegicus [18]): 248.6 mg/dL; Liver weight (Rattus norvegicus [19]): 57.2 mg (g of body weight)-1; TG (Rattus norvegicus [20]): 52.8 mg/dL
Cc1cnc(C(=O)OCC(C)(C)CCCCOc2ccc(CCCCc3ccccc3)cc2)cn1 | 47.6 mg/dL | 145.1 mg/dL | 41 mg/dL | 58 mg (g of body weight)-1 | –
CC(C)(CCCCCCCCOc1ccc(CCCCc2ccccc2)cc1)C(=O)O | – | – | – | – | HDL-C (Rattus norvegicus [17]): <53.7 mg/dL; TC (Rattus norvegicus [18]): <150 mg/dL; Liver weight (Rattus norvegicus [19]): 58.4 mg (g of body weight)-1; Liver weight (Rattus norvegicus [22]): <39.3 mg (g of body weight)-1; TG (Rattus norvegicus [20]): 47.6 mg/dL
CC(C)(CCCCCCOc1ccc(CCCCc2ccccc2)cc1)C(=O)O | 58.1 mg/dL | 150.7 mg/dL | 48.9 mg/dL | 60.2 mg (g of body weight)-1 | Liver weight (Rattus norvegicus [6]): 42.3 mg (g of body weight)-1
CCOC(=O)C(C)(C)Oc1ccc(Cl)cc1 [CLOFIBRATE] | – | – | – | – | HDL-C (Rattus norvegicus [17]): 29.4 mg/dL; TC (Rattus norvegicus [18]): <251.2 mg/dL; Liver weight (Rattus norvegicus [19]): 52.8 mg (g of body weight)-1; Liver weight (Rattus norvegicus [22]): <43.1 mg (g of body weight)-1; TG (Rattus norvegicus [20]): <51.8 mg/dL
Cc1ccc(C)c(OCCCC(C)(C)C(=O)O)c1 [GEMFIBROZIL] | 51.5 mg/dL | 358.7 mg/dL | 53.1 mg/dL | – | Liver weight (Rattus norvegicus [25]): 54.8 mg (g of body weight)-1; Liver weight (Rattus norvegicus [23]): 51.4 mg (g of body weight)-1
